From patent US20090111824A1, “AMIDE LINKED HETEROAROMATIC DERIVATIVES AS MODULATORS OF MGLUR5” (AstraZeneca AB, priority 2007, published 2009)
pIC50: −log10 of the molar value.

Assays:
[1] = biological target: T1, human mGluR5d (Homo sapiens, UniProt P41594); experiment: FLIPR assay, functional assessment of mGluR5 antagonism (intracellular calcium mobilization); format: cell-based; settings: cells expressing human mGluR5d; read-out: FLIPR hmGluR5d
T1 construct: expressed in transfected cells; The cells are kept under Hygromycin B and Zeocin selection; The separate IP3 assay names GHEK cells
Description: Functional Assessment of mGluR5 Antagonism in Cell Lines Expressing mGluR5D
The properties of the compounds of the invention can be analyzed using standard assays for pharmacological activity. Examples of glutamate receptor assays are well known in the art as described in for example Aramori et al., Neuron 8:757 (1992), Tanabe et al., Neuron 8:169 (1992), Miller et al., J. Neuroscience 15: 6103 (1995), Balazs, et al., J. Neurochemistry 69:151 (1997). The methodology described in these publications is incorporated herein by reference. Conveniently, the compounds of the invention can be studied by means of an assay (FLIPR) that measures the mobilization of intracellular calcium, [Ca^2+]i in cells expressing mGluR5 or another assay (IP3) that measures inositol phosphate turnover.
Cells expressing human mGluR5d as described in WO97/05252 cultured in a mixture of high glucose DMEM with Glutamax (31966-021)(500 mL), 10% dialyzed fetal bovine serum (Hyclone #SH30079.03)(56 mL), 200 μg/mL Hygromycin B (Invitrogen 45-0430, 50 mg/mL)(2.2 mL), 200 μg/mL Zeocin (Invitrogen #R250-01; 100 mg/l mL)(1.1 mL) are seeded at a density of 100,000 cells per well on collagen coated clear bottom 96-well plates with black sides and cells were allowed to adhere over night before experiments. All assays are done in a buffer containing 146 mM NaCl, 5 mM KCl, 1 mM MgCl2, 1 mM CaCl2, 20 mM HEPES, 1 mg/mL glucose and 1 mg/mL BSA Fraction IV (pH 7.4). Cell cultures in the 96-well plates are loaded for 60 minutes in the above mentioned buffer containing 6 μM of the acetoxymethyl ester form of the fluorescent calcium indicator fluo-3 (Molecular Probes, Eugene, Oreg.) in 0.025% pluronic acid (a proprietary, non-ionic surfactant polyol—CAS Number 9003-11-6). […] The fluorescence signal is sampled 50 times at 1-second intervals followed by 3 samples at 5-second intervals immediately after each of the two additions. Responses are measured as the difference between the peak heights of the response to agonist, less the background fluorescence within the sample period. […]

[2] = Determination of brain to plasma ratio in rat; format: in vivo; settings: brain and plasma, female Sprague Dawley rats, read-out: Brain/Plasma Ratio of compound in Rat
Procedure: Brain to plasma ratios are estimated in female Sprague Dawley rats. The compound is dissolved in water or another appropriate vehicle. For determination of brain to plasma ratio the compound is administrated as a subcutaneous, or an intravenous bolus injection, or an intravenous infusion, or an oral administration. At a predetermined time point after the administration a blood sample is taken with cardiac puncture. The rat is terminated by cutting the heart open, and the brain is immediately retained. The blood samples are collected in heparinized tubes and centrifuged within 30 minutes, in order to separate the plasma from the blood cells. The plasma is transferred to 96-well plates and stored at −20° C. until analysis. The brains are divided in half, and each half is placed in a pre-tarred tube and stored at −20° C. until analysis. Prior to the analysis, the brain samples are thawed and 3 mL/g brain tissue of distilled water is added to the tubes. The brain samples are sonicated in an ice bath until the samples are homogenized. Both brain and plasma samples are precipitated with acetonitrile. After centrifugation, the supernatant is diluted with 0.2% formic acid. Analysis is performed on a short reversed-phase HPLC column with rapid gradient elution and MSMS detection using a triple quadrupole instrument with electrospray ionisation and Selected Reaction Monitoring (SRM) acquisition. Liquid-liquid extraction may be used as an alternative sample clean-up. The samples are extracted, by shaking, to an organic solvent after addition of a suitable buffer. An aliquot of the organic layer is transferred to a new vial and evaporated to dryness under a stream of nitrogen. After reconstitution of the residuals the samples are ready for injection onto the HPLC column.

T1 sequence (P41594 21-942 isoform P41594-3 limits assumed): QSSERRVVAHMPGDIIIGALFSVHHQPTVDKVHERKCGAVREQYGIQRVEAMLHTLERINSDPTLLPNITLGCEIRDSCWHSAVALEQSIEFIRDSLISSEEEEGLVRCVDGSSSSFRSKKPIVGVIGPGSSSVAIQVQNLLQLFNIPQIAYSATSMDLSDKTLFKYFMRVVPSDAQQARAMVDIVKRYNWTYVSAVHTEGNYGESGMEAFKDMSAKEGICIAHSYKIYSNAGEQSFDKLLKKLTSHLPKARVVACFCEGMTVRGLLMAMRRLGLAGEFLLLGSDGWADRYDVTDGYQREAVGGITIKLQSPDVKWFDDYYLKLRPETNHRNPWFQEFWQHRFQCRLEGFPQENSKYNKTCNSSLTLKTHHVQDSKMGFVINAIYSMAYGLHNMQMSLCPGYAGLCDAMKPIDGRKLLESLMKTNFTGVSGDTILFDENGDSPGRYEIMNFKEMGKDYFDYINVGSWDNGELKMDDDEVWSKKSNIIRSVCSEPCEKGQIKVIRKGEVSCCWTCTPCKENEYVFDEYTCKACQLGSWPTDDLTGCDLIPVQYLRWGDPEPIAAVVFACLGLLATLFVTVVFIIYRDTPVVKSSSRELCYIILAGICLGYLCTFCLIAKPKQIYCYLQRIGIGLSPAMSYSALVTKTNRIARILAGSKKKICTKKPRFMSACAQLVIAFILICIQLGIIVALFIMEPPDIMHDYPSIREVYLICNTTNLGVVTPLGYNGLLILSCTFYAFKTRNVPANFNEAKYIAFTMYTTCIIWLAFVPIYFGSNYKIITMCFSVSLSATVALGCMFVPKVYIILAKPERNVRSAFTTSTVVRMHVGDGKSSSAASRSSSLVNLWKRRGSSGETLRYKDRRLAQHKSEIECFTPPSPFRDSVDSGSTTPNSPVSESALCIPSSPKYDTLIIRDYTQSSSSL

Row | Structure (SMILES) | pIC50 [1] | Kp [2]
1 | Cc1cccc(-n2nnc(C(=O)N(C)c3nnc(-c4cn[nH]c(=O)c4)n3C)n2)c1 [Example 4, N-Methyl-N-[4-methyl-5-(6-oxo-1,6-dihydropyridazin-4-yl)-4H-1,2,4-triazol-3-yl]-2-(3-methylphenyl)-2H-tetrazole-5-carboxamide] | 6.25 | < 0.01
2 | CN(C(=O)c1cc(-c2cccc(Cl)c2)on1)c1nnc(-c2ccncc2)n1C [Example 1, 5-(3-Chlorophenyl)-N-methyl-N-(4-methyl-5-pyridin-4-yl-4H-1,2,4-triazol-3-yl)isoxazole-3-carboxamide] | 7.43 | 0.26
3 | CN(C(=O)c1cc(-c2cccc(Cl)c2)on1)c1nnc(-c2cn[nH]c(=O)c2)n1C [Example 3, 5-(3-Chlorophenyl)-N-methyl-N-[4-methyl-5-(6-oxo-1,6-dihydropyridazin-4-yl)-4H-1,2,4-triazol-3-yl]isoxazole-3-carboxamide] | 7.21 | 0.19
